According to PMC11952368 (bioRxiv, 2025):

How the values were obtained:
[1] = body and spleen weight / systemic toxicity, combination with Dox; assay type: in vivo, BALB/c mice; conditions: Dox 5 mg/kg i.p. every 72 hr; n=4 mice per group
[2] = tested on: mammary tumor; conditions: ref [87]; cited from earlier work

SMILES | body and spleen weight [1] | tumor ECM normalization and chemotherapy response [2]
COc1cccc2c1C(=O)c1c(O)c3c(c(O)c1C2=O)C[C@@](O)(C(=O)CO)C[C@@H]3O[C@H]1C[C@H](N)[C@H](O)[C@H](C)O1 [Dox, doxorubicin] | loss of body and spleen weight | –
Cc1ccc(=O)n(-c2ccccc2)c1 [Pirfenidone] | – | normalizes the tumor ECM for enhanced chemotherapy response
